Call and mutagenic call data for 17 compounds are collected here from PubChem BioAssay AID1259408 (Genetic Toxicology Data Bank (GENE-TOX), 2018).

Active and inactive are the calls of the source. No rule for the calls is given here.

The subject of this series is GENE-TOX genotoxicity assays, various organisms and cells. In words: GENE-TOX mutagenicity studies. The settings on record: for call: Assay Type: In vivo carcinogenicity studies.
Setting [1] is: Species/Cell Type: Chinese hamster lung (V79) cells, Assay Type: Forward gene mutation at the HPRT or ouabain locus, Assay Code: V79-, Evaluation Type: Evaluation A (Pre-1980).
The mark [2] stands for this setting: Species/Cell Type: Salmonella typhimurium (one or more of the five standard strains: TA98, TA100, TA1535, TA1537, and TA1538), Assay Type: Histidine reverse gene mutation, Ames assay, Assay Code: SAL+, Evaluation Type: Evaluation A (Pre-1980).
The mark [3] stands for this setting: Species/Cell Type: Escherichia coli polA (W3119 vs P3478), Assay Type: Rec-assay, DNA effects (bacterial DNA repair), Assay Code: RE1T, Evaluation Type: Evaluation A (Pre-1980).
Where [4] appears, read: Species/Cell Type: Nonhuman, Assay Code: CCGT, Evaluation Type: Evaluation A (Pre-1980).
Setting [5] is: Species/Cell Type: Salmonella typhimurium (one or more of the five standard strains: TA98, TA100, TA1535, TA1537, and TA1538), Assay Type: Histidine reverse gene mutation, Ames assay, Assay Code: SAL+*, Activation: With metabolic activation, Evaluation Type: Evaluation A (Pre-1980).
[6] abbreviates: Species/Cell Type: Allium cepa, Assay Type: Chromosome aberrations, Assay Code: ALC+D, Dose Response: With dose response, Evaluation Type: Evaluation A (Pre-1980).
Where [7] appears, read: Species/Cell Type: Saccharomyces cerevisiae, Assay Type: Mitotic recombination or gene conversion, Assay Code: YEC+, Evaluation Type: Evaluation A (Pre-1980).
[8] abbreviates: Species/Cell Type: Saccharomyces cerevisiae, Assay Type: Mitotic recombination or gene conversion, Assay Code: YEH+, Evaluation Type: Evaluation A (Pre-1980).
Setting [9] is: Species/Cell Type: Saccharomyces cerevisiae, Assay Type: Reverse gene mutation, Assay Code: YER+, Evaluation Type: Evaluation A (Pre-1980).

As to `NC(=S)Nc1ccccc1`, the call (Species/Cell Type: Nonhuman, Assay Code: CCG-L, Evaluation Type: Evaluation A (Pre-1980)) is “inactive; negative”.
With `c1cc2ccc3cc4c(c5ccc(c1)c2c35)CCC1OC41` (centres undefined), the mutagenic call under setting [1] was “inactive; negative”; the mutagenic call (Species/Cell Type: Mouse prostate cells, Assay Type: Cell transformation, Assay Code: CTM+, Evaluation Type: Evaluation A (Pre-1980)) is “active; positive”; the mutagenic call under setting [2] is “active; positive”.
Consider `Oc1c(I)cc(Cl)c2cccnc12`, for which the mutagenic call (Species/Cell Type: Neurospora crassa, Assay Type: Aneuploidy, chromosome aberrations, Assay Code: NEN-, Evaluation Type: Evaluation A (Pre-1980)) was “inactive; negative”.
On to `c1ccc2c(c1)c1cccc3ccc4cccc2c4c31`, for which the mutagenic call by setting is: under setting [1], “inactive; negative”; (Species/Cell Type: Escherichia coli polA (W3110 vs P3478), Assay Type: Rec-assay, DNA effects (bacterial DNA repair), Assay Code: RE2-, Evaluation Type: Evaluation A (Pre-1980)) “inactive; negative”; under setting [3], “no conclusion”; (Species/Cell Type: Fischer rat embryo (RLV/1706) cells, Assay Type: Cell transformation, viral enhanced, Assay Code: CTR-, Evaluation Type: Evaluation A (Pre-1980)) “inactive; negative”; (Species/Cell Type: Human diploid fibroblasts, Assay Type: Unscheduled DNA synthesis (UDS) in vitro, DNA effects, Assay Code: UDH+*, Activation: With metabolic activation, Evaluation Type: Evaluation A (Pre-1980)) “active; positive”; (Species/Cell Type: Mouse (BALB/c-3T3) cells, Assay Type: Cell transformation, Assay Code: CTB-, Evaluation Type: Evaluation A (Pre-1980)) “inactive; negative”. In addition, the mutagenic call by setting is: (Species/Cell Type: Mouse lymphoma (L5178Y) cells, Assay Type: Forward gene mutation at the thymidine kinase (TK) locus, chromosome aberrations, Assay Code: L51T, Evaluation Type: Evaluation A (Pre-1980)) “no conclusion”; (Species/Cell Type: Nonhuman, Assay Type: Sister-chromatid exchange (SCE) in vitro, Assay Code: SC2T, Evaluation Type: Evaluation B (Post-1980)) “no conclusion”; (Species/Cell Type: Nonhuman, Assay Type: Sister-chromatid exchange (SCE) in vivo, Assay Code: SC3+, Evaluation Type: Evaluation B (Post-1980)) “active; positive”; (Species/Cell Type: Nonhuman, Assay Type: Sister-chromatid exchange (SCE) in vivo, Assay Code: SC3T, Evaluation Type: Evaluation A (Pre-1980)) “no conclusion”; (Species/Cell Type: Saccharomyces cerevisiae, Assay Type: Mitotic recombination or gene conversion, Assay Code: YEH-, Evaluation Type: Evaluation A (Pre-1980)) “inactive; negative”; under setting [5], “active; positive”. The mutagenic call (Species/Cell Type: Syrian hamster embryo (SHE) cells, Assay Type: Cell transformation, clonal assay, Assay Code: CTC-, Evaluation Type: Evaluation A (Pre-1980)) was “inactive; negative”. Moreover, under setting [4], the call was “no conclusion”.
Consider `N[C@@H](Cc1ccc(N(CCCl)CCCl)cc1)C(=O)O`, for which the mutagenic call was “active; positive” (Species/Cell Type: Drosophila melanogaster, Assay Type: Sex-linked recessive lethal gene mutation, Assay Code: SRL+, Evaluation Type: Evaluation A (Pre-1980)); “no conclusion” (Species/Cell Type: Drosophila melanogaster, Sex: Male, Assay Type: Heritable translocation test, chromosome aberrations, Assay Code: DHTT, Evaluation Type: Evaluation A (Pre-1980)); “active; positive” (Species/Cell Type: Escherichia coli polA (W3110 vs P3478), Assay Type: Rec-assay, DNA effects (bacterial DNA repair), Assay Code: RE2+, Evaluation Type: Evaluation A (Pre-1980)); “no conclusion” under setting [3]; “active; positive” (Species/Cell Type: Human cell culture, Assay Type: Chromosome aberrations in vitro, Assay Code: CYZ+, Evaluation Type: Evaluation A (Pre-1980)); “active; positive” (Species/Cell Type: Human lymphocytes, Assay Type: Sister-chromatid exchange (SCE) in vitro, Assay Code: SCL+, Evaluation Type: Evaluation A (Pre-1980)). Also, the mutagenic call by setting is: (Species/Cell Type: Human lymphocytes, Assay Type: Sister-chromatid exchange (SCE) in vitro, Assay Code: SCL+D, Dose Response: With dose response, Evaluation Type: Evaluation B (Post-1980)) “active; positive”; (Species/Cell Type: Human lymphocytes, Assay Type: Sister-chromatid exchange (SCE) in vivo, Assay Code: SCY+, Evaluation Type: Evaluation B (Post-1980)) “active; positive”; (Species/Cell Type: Human, Assay Type: Sister-chromatid exchange (SCE) in vitro, Assay Code: SC1+D, Dose Response: With dose response, Evaluation Type: Evaluation B (Post-1980)) “active; positive”; (Species/Cell Type: Mouse (C3H/10T1/2) cells, Assay Type: Cell transformation, Assay Code: CTH+, Evaluation Type: Evaluation A (Pre-1980)) “active; positive”; (Species/Cell Type: Nonhuman, Assay Type: Chromosome aberrations in vitro, Assay Code: CY&+, Evaluation Type: Evaluation A (Pre-1980)) “active; positive”; (Species/Cell Type: Nonhuman, Assay Type: Sister-chromatid exchange (SCE) in vitro, Assay Code: SC2+D, Dose Response: With dose response, Evaluation Type: Evaluation A (Pre-1980)) “active; positive”. Moreover, the mutagenic call under setting [2] is “active; positive”. The call (Species/Cell Type: Nonhuman, Assay Code: CCG+, Evaluation Type: Evaluation A (Pre-1980)) is “active; positive”.
With `N[C@@H](CC(=O)O)C(=O)O`, the mutagenic call reads like this: under setting [6], “active; positive”; (Species/Cell Type: Human, Sex: Male, Assay Type: Sperm morphology, Assay Code: SPH+, Evaluation Type: Evaluation A (Pre-1980)) “active; positive”.
For `O=NN1CCNC1=O`, the mutagenic call is “active; positive” (Species/Cell Type: Arabidopsis species, Assay Type: Gene mutation, Assay Code: ARM+D, Dose Response: With dose response, Evaluation Type: Evaluation A (Pre-1980)); “active; positive” (Species/Cell Type: Saccharomyces cerevisiae, Assay Type: Forward gene mutation, Assay Code: YEF+, Evaluation Type: Evaluation A (Pre-1980)); “active; positive” under setting [7]; “active; positive” under setting [8]; “active; positive” under setting [9]; “active; positive” under setting [2].
For the compound `Oc1cccc2ncccc12`, the mutagenic call under setting [5] is “active; positive”.
Take `COc1nc2c(c(=O)n(C)c(=O)n2C)n1C`: the mutagenic call is “active; positive” under setting [6] and “active; positive” (Species/Cell Type: Vicia faba, Assay Type: Chromosome aberrations, Assay Code: VIC+, Evaluation Type: Evaluation A (Pre-1980)).
Turning to `OCCS`, where the note is “Species/Cell Type: Nonhuman, Assay Type: Sister-chromatid exchange (SCE) in vitro, Assay Code: SC2+D, Dose Response: With dose response, Evaluation Type: Evaluation B (Post-1980)”, the mutagenic call is “active; positive”.
`COc1ccc(C(=O)/C(Br)=C/C(=O)O)cc1`: the mutagenic call (Species/Cell Type: Human bone marrow, Assay Type: Chromosome aberrations in vivo, Assay Code: CY5+, Evaluation Type: Evaluation A (Pre-1980)) was “active; positive” and the mutagenic call (Species/Cell Type: Nonhuman bone marrow, Assay Type: Chromosome aberrations, in vivo, Assay Code: CY#+D, Dose Response: With dose response, Evaluation Type: Evaluation A (Pre-1980)) was “active; positive”.
In the case of `CC(=O)OCCN(CCOC(C)=O)N=O`, the mutagenic call (Species/Cell Type: Mammalian polychromatic erythrocytes, Assay Type: Micronucleus test, chromosome aberrations, Assay Code: MNTT, Evaluation Type: Evaluation B (Post-1980)) was “no conclusion”.
Turning to `Cc1c(N)nc(C(CC(N)=O)NCC(N)C(N)=O)nc1C(=O)NC(C(=O)NC(C)C(O)C(C)C(=O)NC(C(=O)NCCc1nc(-c2nc(C(=O)NCCC[S+](C)C)cs2)cs1)C(C)O)C(O[C@@H]1O[C@@H](CO)[C@@H](O)[C@H](O)[C@@H]1O[C@H]1O[C@H](CO)[C@@H](O)[C@H](OC(N)=O)[C@@H]1O)c1cnc[nH]1` (some centres undefined), the mutagenic call by setting is: (Species/Cell Type: Human lymphocytes, Assay Type: Sister-chromatid exchange (SCE) in vitro, Assay Code: SCLT, Evaluation Type: Evaluation B (Post-1980)) “no conclusion”; (Species/Cell Type: Human, Assay Type: Sister-chromatid exchange (SCE) in vitro, Assay Code: SC1T, Evaluation Type: Evaluation B (Post-1980)) “no conclusion”; under setting [7], “active; positive”; under setting [8], “active; positive”; under setting [9], “active; positive”.
For the compound `[Cl][Tl]`, the mutagenic call (Species/Cell Type: Syrian hamster embryo (SA7/SHE) cells, Assay Type: Cell transformation, viral enhanced, Assay Code: CT7+, Evaluation Type: Evaluation A (Pre-1980)) was “active; positive”.
Regarding `Cc1ccc2cc3c4c(ccc3c3c2c1CC3)C=C[C@H](O)[C@H]4O`, the mutagenic call reads like this: (Species/Cell Type: Chinese hamster lung (V79) cells, Assay Type: Forward gene mutation at the HPRT or ouabain locus, Assay Code: V79+, Evaluation Type: Evaluation A (Pre-1980)) “active; positive”; under setting [5], “active; positive”. Further, the call under setting [4] is “no conclusion”.
In the case of `Cn1cnc2ncn(C)c2c1=O`, under “Species/Cell Type: Allium cepa, Assay Type: Chromosome aberrations, Assay Code: ALC-, Evaluation Type: Evaluation A (Pre-1980)”, the mutagenic call is “inactive; negative”.
On to `Nc1nc(N)c2cc(S(=O)(=O)c3ccc4ccccc4c3)ccc2n1`, for which the mutagenic call (Species/Cell Type: Salmonella typhimurium (one or more of the five standard strains: TA98, TA100, TA1535, TA1537, and TA1538), Assay Type: Histidine reverse gene mutation, Ames assay, Assay Code: SALT, Evaluation Type: Evaluation A (Pre-1980)) is on record as “no conclusion”.
